What was measured:
TPα^S145A = biological target: T1, TPα^S145A (Homo sapiens, UniProt P21731, S145A); test: [3H]SQ29,548 radioligand binding, Scatchard analysis, HEK.TPα^S145A
T1 construct: expressed in transfected cells
T1 sequence (P21731 1-343 S145A): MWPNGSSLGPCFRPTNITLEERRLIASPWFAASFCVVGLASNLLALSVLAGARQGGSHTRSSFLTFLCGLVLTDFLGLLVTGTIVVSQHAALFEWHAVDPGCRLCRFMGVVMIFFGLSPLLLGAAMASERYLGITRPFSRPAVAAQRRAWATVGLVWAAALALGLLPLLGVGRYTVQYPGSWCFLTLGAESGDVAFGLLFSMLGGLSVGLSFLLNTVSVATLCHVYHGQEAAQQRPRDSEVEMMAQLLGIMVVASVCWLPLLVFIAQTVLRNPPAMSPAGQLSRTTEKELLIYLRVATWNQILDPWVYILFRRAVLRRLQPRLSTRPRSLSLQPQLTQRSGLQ
Description: Cells were harvested by centrifugation at 500×g at 4 °C for 5 min and washed three times with ice-cold Ca^2+/Mg^2+-free phosphate-buffered saline (PBS). TP radioligand binding assays were carried out at 30 °C for 30 min in 100 μl reactions in the presence of 0–40 nM [^3H] […] Protein determinations were carried out using the Bradford assay.
Radioligand binding and Scatchard analysis data were analysed using GraphPad Prisim V4.0 programme (GraphPad Software Inc., San Diego CA, USA). Statistical analyses were carried out using the unpaired Student's t test using the Statworks Analysis Package. p-values ≤ 0.01 indicated statistically significant differences.

TP^S145A,Δ328 = biological target: T2, TP^S145A,Δ328 (Homo sapiens, UniProt P21731, S145A); test: Intracellular calcium mobilization, HEK.TP^S145A,Δ328 cells; format: cell-based
T2 construct: expressed in transfected cells
T2 sequence (P21731 1-328 S145A): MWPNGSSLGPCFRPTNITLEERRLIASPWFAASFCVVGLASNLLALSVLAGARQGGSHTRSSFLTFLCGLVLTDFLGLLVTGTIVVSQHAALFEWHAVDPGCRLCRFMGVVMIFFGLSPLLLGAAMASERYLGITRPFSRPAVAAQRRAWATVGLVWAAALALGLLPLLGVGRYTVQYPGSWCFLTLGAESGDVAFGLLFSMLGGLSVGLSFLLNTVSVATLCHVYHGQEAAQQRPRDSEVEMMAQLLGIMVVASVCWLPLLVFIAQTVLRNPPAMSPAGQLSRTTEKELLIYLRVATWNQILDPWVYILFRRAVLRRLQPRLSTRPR
Description: Measurement of intracellular calcium mobilization ([Ca^2+]i) in FURA2/AM preloaded HEK 293 cell lines (2 × 10^6 cells/dish), each transiently co-transfected with pADVA (10 μg), and pCMV:Gαq (25 μg), was carried out as previously described. To investigate the effect of GRK2/βARK1 on TP-mediated [Ca^2+]i mobilization, HEK.TPα or HEK.TPβ cells (2 × 10^6 cells/dish) were co-transfected with pADVA (10 μg), pCMV:Gαq (25 μg) along with pRK5:βARK1^495–689 (25 μg), encoding a dominant negative form of GRK2/βARK1[39]. […] For each measurement of [Ca^2+]i mobilization, aliquots of cells were diluted to 0.825 × 10^6 cells/ml in HBSSHB, 1 mM CaCl2 and FURA2 fluorescence was recorded (2 ml aliquots of cells) at 37^ °C with gentle stirring with a Perkin Elmer-Cetus LS50-B spectrofluorometer at excitation wavelengths of 340 nm and 380 nm and emission wavelength of 510 nm, respectively.
Cells were stimulated with the TP agonist U46619 (1 μM) and changes in [Ca^2+]i mobilization were monitored as a function of time. […]
The vehicle had no effect on U46619-mediated [Ca^2+]i mobilization. Calibration of the signal was performed in each sample by adding 0.2% Triton X-100 to obtain the maximal fluorescence ratio (Rmax) and then 1 mM EGTA to obtain the minimal fluorescence ratio (Rmin). […]

## O=C(O)CCC/C=C\C[C@@H]1[C@H](CNNC(=O)Nc2ccccc2)[C@H]2CC[C@@H]1O2 [SQ29,548]
TPα^S145A
  Bmax (pmol/mg protein ± S.E.M.): 3.03 ± 0.04 pmol/mg protein

## CCCCC[C@H](O)/C=C/[C@@H]1[C@@H](C/C=C\CCCC(=O)O)[C@H]2CO[C@@H]1C2 [U46619]
TP^S145A,Δ328; primary 1 μM U46619 4 min
  Δ[Ca2+]i, U46619-induced: 174 ± 7.7 nM
TP^S145A,Δ328; secondary 1 μM U46619 at 15 min
  Δ[Ca2+]i, U46619-induced: 170 ± 9.9 nM

Reference: publication PMC2680961, “Homologous desensitization of signalling by the alpha (α) isoform of the human thromboxane A2 receptor: A specific role for nitric oxide signalling” (Biochimica et Biophysica Acta, 2007)
